The target in test [1] is T1, FLT3 (Homo sapiens, UniProt P36888).
T1 construct: purchased Life Technologies PV3182
T1 sequence (P36888 27-993): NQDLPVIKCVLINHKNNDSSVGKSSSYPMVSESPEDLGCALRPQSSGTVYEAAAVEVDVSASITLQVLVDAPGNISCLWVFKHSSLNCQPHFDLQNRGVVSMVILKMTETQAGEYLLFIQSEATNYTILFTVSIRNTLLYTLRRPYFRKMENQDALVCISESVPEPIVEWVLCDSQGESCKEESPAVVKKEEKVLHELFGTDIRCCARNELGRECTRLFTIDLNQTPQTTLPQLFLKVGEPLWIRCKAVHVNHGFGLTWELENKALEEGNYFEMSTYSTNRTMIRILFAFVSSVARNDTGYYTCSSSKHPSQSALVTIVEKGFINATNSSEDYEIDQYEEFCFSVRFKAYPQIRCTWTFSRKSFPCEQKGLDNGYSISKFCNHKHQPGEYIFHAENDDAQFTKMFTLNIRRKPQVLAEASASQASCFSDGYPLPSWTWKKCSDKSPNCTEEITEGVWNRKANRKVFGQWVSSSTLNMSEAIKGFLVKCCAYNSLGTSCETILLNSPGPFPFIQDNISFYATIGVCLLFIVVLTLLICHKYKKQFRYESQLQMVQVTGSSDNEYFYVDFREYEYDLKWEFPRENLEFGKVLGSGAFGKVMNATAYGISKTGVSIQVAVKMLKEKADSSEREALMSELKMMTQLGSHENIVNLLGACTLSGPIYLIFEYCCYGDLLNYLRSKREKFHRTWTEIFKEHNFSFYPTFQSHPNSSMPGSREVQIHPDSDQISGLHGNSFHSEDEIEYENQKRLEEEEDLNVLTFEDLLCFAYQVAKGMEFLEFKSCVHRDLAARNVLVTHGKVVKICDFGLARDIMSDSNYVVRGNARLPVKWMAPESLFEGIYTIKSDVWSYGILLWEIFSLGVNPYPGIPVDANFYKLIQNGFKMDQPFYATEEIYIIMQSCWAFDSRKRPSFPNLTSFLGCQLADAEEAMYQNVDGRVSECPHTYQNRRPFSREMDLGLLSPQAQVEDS
Nature of the test: LanthaScreen TR-FRET binding test, FLT3. Particulars: recombinant enzyme 15 nM, kinase tracer 236 3 nM, 25° C., 1 hour. As for the experimental part:
(§1) FLT3 (#PV3182), JAK2 (#FV4210) and JAK3 (#PV3855) recombinant enzymes were purchased from Life Technologies, FLT3-ITD (#0778-0000-1) and FLT3^D835Y (#14-610) proteins were purchased from ProQinase and Merck Millipore, respectively. All the tests were carried out in 384-well plates. The principle of these binding tests is based on the LanthaScreen® TR-FRET methodology from Life Technologies.
(§2) FLT3 tests. The reaction mixture (15 μL total volume) contains the following compounds: 15 nM FLT3, FLT3-ITD or FLT3^D835Y, 3 nM kinase tracer 236 (Life Technologies, #PV5592) and 6 nM LanthaScreen® anti-GST antibody coupled to a europium chelate (Life Technologies, #PV5594) for FLT3-ITD and FLT3^D835Y or 6 nM LanthaScreen® anti-His antibody coupled to a europium chelate (Life Technologies, #PV5596) for FLT3.
(§3) The compounds are evaluated at 8 different concentrations prepared by making dilutions from a starting 10 mM stock solution in dimethylsulfoxide (DMSO) (Sigma, #D8418). The final DMSO concentration in the test is 1%. The reaction is carried out at 25° C. for 1 hour and detected on the EnVision® reader (Perkin Elmer) according to the recommendations of the supplier, Life Technologies.
(§4) The results are presented (Table 1) as the concentration values of the compound at which 50% of the kinase activity is inhibited, IC50 (μM), generated using the PRISM software (GraphPad).

Test [2] deals with T2, FLT3-ITD (Homo sapiens, UniProt P36888).
T2 construct: fused on or other part: GST tag, inferred from detection with the anti-GST europium antibody
T2 sequence (P36888 1-993): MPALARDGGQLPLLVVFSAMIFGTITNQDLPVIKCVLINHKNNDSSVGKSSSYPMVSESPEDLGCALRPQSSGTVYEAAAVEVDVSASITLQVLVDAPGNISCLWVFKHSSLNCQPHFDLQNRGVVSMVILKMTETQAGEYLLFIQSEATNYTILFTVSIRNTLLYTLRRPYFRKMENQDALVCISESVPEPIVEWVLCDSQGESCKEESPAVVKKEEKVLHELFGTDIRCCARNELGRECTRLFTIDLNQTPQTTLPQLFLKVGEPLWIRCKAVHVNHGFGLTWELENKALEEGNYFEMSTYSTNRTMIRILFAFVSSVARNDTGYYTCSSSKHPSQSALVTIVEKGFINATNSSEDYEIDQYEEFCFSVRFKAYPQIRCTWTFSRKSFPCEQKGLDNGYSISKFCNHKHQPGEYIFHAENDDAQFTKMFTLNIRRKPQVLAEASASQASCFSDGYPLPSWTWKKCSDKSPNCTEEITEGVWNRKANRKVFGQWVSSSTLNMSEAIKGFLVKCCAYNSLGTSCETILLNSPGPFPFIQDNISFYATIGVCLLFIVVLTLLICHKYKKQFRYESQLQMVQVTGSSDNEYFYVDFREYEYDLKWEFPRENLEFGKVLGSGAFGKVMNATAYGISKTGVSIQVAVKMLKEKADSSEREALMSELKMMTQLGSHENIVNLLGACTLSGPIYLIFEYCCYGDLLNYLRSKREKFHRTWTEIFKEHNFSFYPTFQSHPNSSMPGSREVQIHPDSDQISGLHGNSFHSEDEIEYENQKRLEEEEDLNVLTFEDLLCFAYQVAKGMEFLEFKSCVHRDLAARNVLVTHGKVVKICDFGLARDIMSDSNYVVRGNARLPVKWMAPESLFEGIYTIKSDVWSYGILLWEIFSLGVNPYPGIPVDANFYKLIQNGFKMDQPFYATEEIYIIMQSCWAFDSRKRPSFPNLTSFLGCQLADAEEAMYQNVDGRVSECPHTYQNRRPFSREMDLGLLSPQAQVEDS
Nature of the test: LanthaScreen TR-FRET binding test, FLT3-ITD. Particulars: 15 nM protein, kinase tracer 236 3 nM, 25° C., 1 hour. The procedure: as §1, §2, §3, §4

Test [3] addresses T3, FLT3^D835Y (Homo sapiens, UniProt P36888, D835Y).
T3 construct: purchased Merck Millipore 14-610
T3 sequence (P36888 27-993 D835Y): T1 sequence (P36888 27-993) with D809Y
Nature of the test: LanthaScreen TR-FRET binding test, FLT3 D835Y. Particulars: 15 nM protein, kinase tracer 236 3 nM, 25° C., 1 hour. As for the experimental part: as §1, §2, §3, §4

Test [4] addresses T4, JAK2 (Homo sapiens, UniProt O60674).
T4 construct: purchased Life Technologies FV4210
The test can be described thus: LanthaScreen TR-FRET binding test, JAK2. The settings on record: recombinant enzyme 15 nM, kinase tracer 236 150 nM, 25° C., 1 hour. The procedure: as §1
(§5) JAK tests. The reaction mixture (15 μL total volume) contains the following compounds: 15 nM JAK2 or JAK3, 150 nM kinase tracer 236 (Life Technologies, #PV5592) for JAK2 or 3 nM for JAK3 and 6 nM LanthaScreen® anti-GST antibody coupled to a europium chelate (Life Technologies, #PV5594) for both enzymes.
as §3, §4

Test [5] concerns the target T5, JAK3 (Homo sapiens, UniProt P52333).
T5 construct: purchased Life Technologies PV3855
T5 sequence (P52333 1-1124): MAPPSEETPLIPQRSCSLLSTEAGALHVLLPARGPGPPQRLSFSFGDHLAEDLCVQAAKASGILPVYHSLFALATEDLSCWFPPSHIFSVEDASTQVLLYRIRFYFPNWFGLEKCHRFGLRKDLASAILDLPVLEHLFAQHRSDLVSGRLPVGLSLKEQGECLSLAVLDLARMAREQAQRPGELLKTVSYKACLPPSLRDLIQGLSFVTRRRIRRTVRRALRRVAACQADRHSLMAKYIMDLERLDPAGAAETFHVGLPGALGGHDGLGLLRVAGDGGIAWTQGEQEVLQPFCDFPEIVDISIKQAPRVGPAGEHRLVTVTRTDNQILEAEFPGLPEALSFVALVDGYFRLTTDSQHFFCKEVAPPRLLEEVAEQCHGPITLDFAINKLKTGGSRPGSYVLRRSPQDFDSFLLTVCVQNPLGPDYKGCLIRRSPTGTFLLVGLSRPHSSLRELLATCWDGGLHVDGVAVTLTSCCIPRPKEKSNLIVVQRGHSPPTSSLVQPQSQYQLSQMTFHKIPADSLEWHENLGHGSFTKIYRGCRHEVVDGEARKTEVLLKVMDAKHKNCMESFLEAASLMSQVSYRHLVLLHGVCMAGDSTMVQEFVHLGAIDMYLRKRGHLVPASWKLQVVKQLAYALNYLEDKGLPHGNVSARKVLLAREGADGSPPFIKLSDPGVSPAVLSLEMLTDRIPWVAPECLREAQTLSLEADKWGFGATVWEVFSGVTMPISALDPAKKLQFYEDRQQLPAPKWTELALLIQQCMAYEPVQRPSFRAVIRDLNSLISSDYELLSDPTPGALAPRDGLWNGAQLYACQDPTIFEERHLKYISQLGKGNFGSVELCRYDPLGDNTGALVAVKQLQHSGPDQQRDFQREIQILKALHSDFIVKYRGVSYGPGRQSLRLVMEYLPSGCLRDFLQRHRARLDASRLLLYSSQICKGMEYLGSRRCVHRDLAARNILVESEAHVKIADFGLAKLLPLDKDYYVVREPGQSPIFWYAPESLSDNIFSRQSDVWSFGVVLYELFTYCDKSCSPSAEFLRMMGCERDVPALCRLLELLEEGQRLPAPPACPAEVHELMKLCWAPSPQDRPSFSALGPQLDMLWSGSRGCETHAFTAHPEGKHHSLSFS
The test can be described thus: LanthaScreen TR-FRET binding test, JAK3. The settings on record: recombinant enzyme 15 nM, kinase tracer 236 3 nM, 25° C., 1 hour. As for the experimental part:
as §1, §5, §3, §4

In test [6] the test system is MV4-11. Nature of the test: Antiproliferative activity, MV4-11 cells (ATPLite). It counts as cell-based. The settings on record: Homo sapiens; MV4-11 cell line (acute myeloid leukemia, FLT3-ITD), 72 h, cell viability by ATPLite; read-out: EC50 MV411. The procedure:
(§6) The characteristics of the cell lines used are as follows (Table 2).
(§7) MV4-11 and MOLM-13 cell lines are cultured in the culture medium specified in Table 2 above and according to the supplier's recommendations. The tests are carried out in 96-well plates. The cells are divided in two at D0. At D1, they are seeded and treated with the compounds at various concentrations and incubated for 72 h at 37° C. and 5% CO2. The dilution of the compounds from stock solutions in DMSO (Sigma, #D8418) was made semi-logarithmically for a final concentration in the culture medium of 0.1%. At day 4, cell viability is evaluated by assaying the ATP released by the living cells using the ATPLite® kit (Perkin Elmer, #6016947). The EC50 values (concentration of the compound necessary to obtain 50% of the maximum effect) are calculated using curve-fitting software.

Test [7] deals with MOLM-13. The test can be described thus: Antiproliferative activity, MOLM-13 cells (ATPLite). The settings on record: Homo sapiens; MOLM-13 cell line (acute myeloid leukemia, FLT3-ITD), 72 h, cell viability by ATPLite; read-out: EC50 MOLM13. It counts as cell-based. The procedure: as §6, §7

SMILES strings stand for the structures. Numbering of substitutions follows the chain as printed.

T4 sequence (O60674 whole entry): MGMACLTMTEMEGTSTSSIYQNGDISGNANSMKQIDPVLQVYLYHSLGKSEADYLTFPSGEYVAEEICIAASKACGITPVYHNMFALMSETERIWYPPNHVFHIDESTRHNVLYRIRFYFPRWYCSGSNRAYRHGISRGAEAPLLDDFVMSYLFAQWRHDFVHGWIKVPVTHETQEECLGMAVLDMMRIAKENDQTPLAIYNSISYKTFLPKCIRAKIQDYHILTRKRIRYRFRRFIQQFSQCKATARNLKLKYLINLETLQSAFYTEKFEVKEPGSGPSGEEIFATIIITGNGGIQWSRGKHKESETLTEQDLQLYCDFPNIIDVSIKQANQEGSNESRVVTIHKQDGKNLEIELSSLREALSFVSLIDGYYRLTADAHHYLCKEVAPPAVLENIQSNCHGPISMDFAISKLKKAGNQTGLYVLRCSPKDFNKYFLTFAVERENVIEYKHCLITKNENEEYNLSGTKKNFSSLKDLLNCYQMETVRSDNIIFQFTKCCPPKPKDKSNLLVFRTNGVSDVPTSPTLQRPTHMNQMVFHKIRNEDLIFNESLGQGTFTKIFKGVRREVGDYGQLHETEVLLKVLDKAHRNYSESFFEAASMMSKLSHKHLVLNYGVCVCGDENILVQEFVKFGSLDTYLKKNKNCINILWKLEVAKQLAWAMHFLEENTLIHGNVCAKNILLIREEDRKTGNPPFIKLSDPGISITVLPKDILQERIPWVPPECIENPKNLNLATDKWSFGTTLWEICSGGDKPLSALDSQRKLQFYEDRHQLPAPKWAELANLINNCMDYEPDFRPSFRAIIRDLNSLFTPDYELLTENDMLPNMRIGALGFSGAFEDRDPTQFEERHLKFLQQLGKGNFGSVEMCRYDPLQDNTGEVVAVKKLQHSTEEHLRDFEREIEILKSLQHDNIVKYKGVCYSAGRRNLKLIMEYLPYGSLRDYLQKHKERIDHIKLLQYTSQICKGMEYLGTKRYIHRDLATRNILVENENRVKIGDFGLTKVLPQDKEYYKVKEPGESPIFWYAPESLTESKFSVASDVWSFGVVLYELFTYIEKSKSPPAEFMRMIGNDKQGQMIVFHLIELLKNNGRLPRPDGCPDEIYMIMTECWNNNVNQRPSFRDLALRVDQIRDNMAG

As for `CN1CCN(c2cc3cc(c2)OCCOCCOc2cccc(c2)-c2ccnc(n2)N3)CC1` [Compound 46], the IC50 was determined as 0.0047 µM in test [1]; 0.0016 µM in test [2]; 0.0062 µM in test [3]; 0.06 µM in test [4]; 0.1 µM in test [5]. In addition, the 50% effective concentration (EC50) in test [6] stood at 0.0018 µM; in test [7], 0.0039 µM.

Turning to `CN1CCN(c2ccc3cc2OCCOCCOc2cccc(c2)-c2ccnc(n2)N3)CC1` [Compound 4], the IC50 was determined as 0.0255 µM in test [1]; 0.0145 µM in test [2]; 0.035 µM in test [3]; 0.0077 µM in test [4]; 0.05 µM in test [5]. Moreover, the EC50 was found to be 0.0573 µM in test [6] and 0.0189 µM in test [7].

Take `CN1CCC(N2CCN(c3ccc4cc3OCCOCCOc3cccc(c3)-c3ccnc(n3)N4)CC2)CC1` [Compound 6]: the IC50 in test [1] stood at 0.11 µM; in test [2] it was 0.12 µM; in test [3] it was 0.0412 µM; in test [4], 0.0052 µM; in test [5], 0.05 µM. Moreover, the EC50 was 0.246 µM in test [6] and 0.145 µM in test [7].

These data come from patent US20170281622A1, “DERIVATIVES OF MACROCYCLIC N-ARYL-2-AMINO-4-ARYL-PYRIMIDINE POLYETHERS AS INHIBITORS OF FTL3 AND JAK” (PIERRE FABRE MEDICAMENT, priority 2014, published 2017).
